“Also recorded” adds a separate entry of the source. Read-outs that look alike come from different tables or passages of the source.
Tests used:
[1] = Plasma pharmacokinetics of AVR-48 after iv dosing in preterm lambs; format: in vivo, lamb
Protocol: Formulation and dosing of AVR-48. AVR-48 (3 mg/mL) was formulated in 0.9% sterile saline and filtered through a 0.2-micron syringe filter into 10 mL serum vials ready for dosing. The efficacy dose was determined in a pilot study by stepwise escalating the AVR-48 dose concentrations. […] The vehicle control groups received 0.9% sterile saline every 12 hours (h).
Pharmacokinetic study. The pharmacokinetics (PK) of AVR-48 were determined using plasma from the PT lambs following twice daily IV infusion (10 min) of AVR-48 every 12 h for 7 days. Tested doses were 0 (n=2), 0.1 (n=1), 0.3 (n=1), 1.0 (n=2), 3.0 (n=3), and 9 (n=1) mg/kg. PK evaluation for AVR-48 was only performed for DOL1 (12 time points between 0 and 12 h after the initial dose; volume of plasma samples through DOL2-7 was inadequate for PK evaluation). Quality-controlled plasma bioanalytical data were transferred from the Bioanalytical group to the PK Scientist of the Biopharmaceutics Department of Pharmascience Inc. Samples were analyzed, using Phoenix WinNonlin software, version 8.1 (Certara, USA), using a previously standardized HPLC/LC/MS method.

[2] = system: preterm lamb model of BPD; assay: Neurobehavioral assessments (curiosity, socialization, learning and memory); format: in vivo
Text: Neurobehavioral assessments. The inventors adapted tests for curiosity, using novel objects of different colors and shapes; socialization, using a nonreflective (dull) surface versus a reflective surface (mirror); and learning and memory, using a maze with a reward.^20 These tests were adapted from other studies that assessed the neurobehavior of sheep.^20-25 Assessments were made over 2 weeks.
Habituation (open-field for exploration; days 1 and 2) was used to familiarize the lambs with the test, rest rooms, and tender. Habituation was accomplished on days 1 and 2 by a 10-minute stay in the test room, a 30-minute rest period in the rest room, and another 10-minute stay in the test room. Habituation was repeated the next day.
Tests were (1) curiosity, using novel objects; (2) socialization, using a non-reflective surface and a reflective surface; and (3) learning and memory (using a maze with a milk bottle reward). The tests were done on sequential days over two weeks. Tests were trials of 10-min each, with a 30-min rest period between trials. Each 10-min trial was video recorded, using the Noldus System (model EthoVision XT 17 with the Physiology Integration Module; Noldus Information Technology Inc., Leesburg, VA). The test room had tape on the floor that divided the floor into 9 zones for identification of movement direction and speed, inactivity, etc., in video playback. A ceiling camera recorded each test session. The camera was connected to a dedicated computer with the Noldus software to document lamb activity and time. The novel objects test required four trials on day 3. Trials 1 and 2 used two objects (brown and blue bowls) affixed to the floor. For trial 3, before the lamb was returned to the test room, the brown bowl was replaced with a novelx object (pink pitcher). For trial 4, before the lamb was returned to the test room, a new object (yellow ball) was added with the blue bowl and pink pitcher (3 objects). Analysis was the number of times and the time spent investigating each object.
The socialization test required two trials each on days 4 and 5. Two metallic surfaces were attached to a wall, one with a non-reflective and the other with a reflective surface. Analysis was the number of times and the time spent investigating each surface.
The following week, the learning and memory test required two trials on day 6. A maze made of solid metal panels was set up in the test room. A tender was in one corner of the maze, holding a bottle of milk, the reward for completing the maze. Once the tender was in place, the lamb entered the test room. Analysis was the time to reach the milk bottle reward.

CD163 scavenger receptor = biological target: T1, CD163 scavenger receptor (Homo sapiens, UniProt Q86VB7); assay: Binding of AVR-48 to CBMC monocytes and lymphocytes by flow cytometry
T1 construct: endogenous in cells; host or cells: human cord blood mononuclear cells (monocytes and lymphocytes)
T1 sequence (Q86VB7 42-1156): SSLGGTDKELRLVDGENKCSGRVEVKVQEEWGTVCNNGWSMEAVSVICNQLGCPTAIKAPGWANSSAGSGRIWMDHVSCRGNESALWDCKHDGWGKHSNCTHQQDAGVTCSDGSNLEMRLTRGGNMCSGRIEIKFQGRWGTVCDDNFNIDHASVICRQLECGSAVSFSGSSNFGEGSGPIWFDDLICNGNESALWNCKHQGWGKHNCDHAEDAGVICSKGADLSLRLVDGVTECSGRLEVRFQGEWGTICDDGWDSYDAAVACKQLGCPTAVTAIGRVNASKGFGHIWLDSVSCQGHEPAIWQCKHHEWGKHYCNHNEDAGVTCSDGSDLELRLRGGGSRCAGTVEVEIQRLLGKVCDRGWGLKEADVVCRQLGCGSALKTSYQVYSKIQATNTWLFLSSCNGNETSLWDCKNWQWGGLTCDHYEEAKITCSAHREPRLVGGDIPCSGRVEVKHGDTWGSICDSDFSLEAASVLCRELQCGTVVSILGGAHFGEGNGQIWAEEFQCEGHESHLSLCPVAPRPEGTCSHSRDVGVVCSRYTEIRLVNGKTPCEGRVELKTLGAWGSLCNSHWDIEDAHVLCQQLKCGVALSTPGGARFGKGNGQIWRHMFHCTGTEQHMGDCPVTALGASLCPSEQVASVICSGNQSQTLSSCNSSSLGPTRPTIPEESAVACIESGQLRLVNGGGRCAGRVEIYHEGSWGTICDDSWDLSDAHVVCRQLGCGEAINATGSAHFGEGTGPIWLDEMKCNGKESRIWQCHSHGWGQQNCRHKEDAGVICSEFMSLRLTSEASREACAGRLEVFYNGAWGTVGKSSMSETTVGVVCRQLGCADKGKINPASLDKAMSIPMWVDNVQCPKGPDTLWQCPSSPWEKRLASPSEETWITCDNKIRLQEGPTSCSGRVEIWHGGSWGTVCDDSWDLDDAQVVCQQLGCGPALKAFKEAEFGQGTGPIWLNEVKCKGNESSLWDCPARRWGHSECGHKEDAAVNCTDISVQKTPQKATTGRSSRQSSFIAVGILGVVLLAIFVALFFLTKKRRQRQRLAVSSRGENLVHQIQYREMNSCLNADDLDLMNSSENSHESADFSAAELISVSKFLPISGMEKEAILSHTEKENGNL
Text: N=3 *p≤0.05, **p≤0.01, ***p≤0.001, **** p≤0.0001. Two-way ANOVA was used for statistical analysis.

hPBMCs [3] = assay: Macrophage lineage in hPBMCs over 3, 7 and 10 days; format: cell-based, human; conditions: 100 μM
hPBMCs [4] = assay: hPBMCs treated 7 days with AVR-48, LPS, MPLA, Influenza-A peptides, flow cytometry; format: cell-based, human
mice = assay: Mouse model of influenza peptide vaccination; format: in vivo; conditions: AVR-48 alone or with Flu-A peptide, vs MPLA
Protocol: Study design: N=4/per group ([…], 6-7 months old). Group-1: (FluA) 1st dose; No 2nd dose; Group-2: (FluA) 1st dose; (FluA+MPLA) 2nd dose; Group 3: AVR-48 1st dose; No 2nd dose; and Group 4: Flu-A 1st dose; Flu-A+AVR-48 2nd dose.
Outcome measures: immune cell quantification (FACS) in the spleen, and IgG in serum (ELISA).
In vivo study: In one study, C57Bl/6J mice (n=4/group) were dosed intramuscularly (IM) with either complete Freund's adjuvant (CFA) or incomplete Freund's adjuvant (IFA) along with AVR-48 for a 28-day study using a prime-boost-boost regimen. In the second study, mice were dosed with MPLA and Flu-peptide using only the priming dose regimen (no booster). Splenic immune cells and plasma immunoglobin concentrations were assessed at day 28.

[5] = efficacy dose 10 mg/kg intraperitoneal injection; read-out: Cmax in mouse pups' plasma; cited from earlier work
[6] = 3.00 mg/kg bid iv, Day 1, 0 to 12 hr post dose, lamb plasma
[7] = 3.00 mg/kg bid iv, Day 1, lamb plasma
[8] = 2 moC PNA (d90), FPT lambs vs FPT vehicle

Compound: CC(=O)NC1C(Oc2ccc([N+](=O)[O-])cc2)OC(CO)C(O)C1O (stereo not shown) [AVR-48]
- AUC(0-t) [1, 6]: 4222.9 ± 1835.9 ng·h/mL
- Cmax [1, 6]: 3885.7 ± 1458.7 ng/mL
- Tmax ([1]; 3.00 mg/kg bid iv, Day 1, 0 to 12 hr post dose, male and female lamb plasma): 15 min
- C0 (theoretical Cmax, concentration extrapolated to 0 hr) [1, 7]: 5138.8 ng/mL
- CL [1, 7]: 13.19 mL/min/kg
- T1/2 [1, 7]: 38.4 ± 14.4 min
- Tlast [1, 7]: 4.75 h
- Vd [1, 7]: 0.6684 ± 0.129 L/kg
- plasma concentration 15 minutes after each repeat dosing ([1]; 3.0 mg/kg iv every 12 h for 7 d, lamb plasma): 3886.6 ± 619.7 ng/mL
- Cmax ([1]; 3.0 mg/kg/dose iv, lamb plasma, read-out: Cmax): 10.7 µM
- Exposure (AUC(0-t)) over the dose range tested ([1]; 0.1-9 mg/kg/dose iv): increased dose-relatedly; also recorded: increased in a dose-related manner
- repeat dose Cmax ([1]; iv every 12 h for 7 d, 0.1-9 mg/kg/dose): consistent and dose-dependent
- curiosity and socialization outcomes (time at novel object, dull surface, mirror) ([2]; 1 moC PNA (day of life 60), among groups): No differences were detected
- time at novel object (curiosity test) ([2]; 2 moC PNA (d90), FPT lambs 3.0 mg/kg/dose vs FPT vehicle): significantly less time; also recorded: significantly shorter
- time at the dull surface (socialization test) [2, 8]: less time (not significant); also recorded: significantly shorter
- time at the mirror (reflective surface, socialization test) [2, 8]: more time (not significant); also recorded: significantly longer
- time to navigate the maze to reach the milk bottle reward (learning and memory test) [2, 8]: significantly faster; also recorded: less (not significant)
- binding to CD163 scavenger receptor (CD163 scavenger receptor): exhibits a binding affinity
- macrophage lineage (hPBMCs [3]; day 3 (IFN-γ high CD206 high)): highest % of intermediate macrophage
- macrophage lineage (hPBMCs [3]; day 7 (IFN-γ low CD206 high)): polarizing to M2 phenotype
- macrophage lineage (hPBMCs [3]; day 10 (IFN-γ high CD206 low)): finally to M1
- TEMRE effector T-cell production (hPBMCs [4]; compared to MPLA): stimulated more
- CD8+ IFN-g+ T-memory and helper cell recruitment (hPBMCs [4]; in the presence of influenza-A peptide): perturbated
- CD4+ T-cells production (hPBMCs [4]; vs MPLA): outperformed MPLA
- CD27− T-cells production (hPBMCs [4]; vs MPLA): outperformed MPLA
- CD4+ T-helper cells in mouse spleen (mice): increased
- CD8+ T cells in mouse spleen (mice): increased
- CD19+ B cells in mouse spleen (mice): increased
- CD38+/CD27+ plasma blasts in mouse spleen (mice): increased
- IgG in mouse serum (mice): increased
- Cmax [5]: 5.7 µM

From patent US20250332183A1, “COMPOSITIONS AND METHODS FOR THE STIMULATION OF INTERMEDIATE MACROPHAGES AND TREATMENTS THEREWITH” (priority 2024, published 2025)
